Structures can show the parent of a compound that is named as a salt. Where two headings read alike, the source gives them in different places.
Tests used:
human C1 = biological target: T1, human C1 (Homo sapiens, UniProt P09871); test: Test, Code 026 (C1 inhibitor): protection of fluid phase human C2 from activated human C1; type: biochemical; details: activity in wells, twofold serial dilution; higher well number indicates higher activity
T1 construct: substrate fluid phase human C2, in presence of C4
From the text: (§1) An active inhibitor protects C2 from C1 and C4; (ii) Test, Code 035 (C3-C9 inhibitor)--This test determines the ability of the late components of human complement (C3-C9) to lyse EAC 142 in the presence of appropriate dilutions of the test compound. An active inhibitor protects EAC 142 from lysis by human C3-C9; (iii) Test, Code 036 (C-Shunt inhibitor)--In this test human erythrocytes rendered fragile are lysed in autologous serum via the shunt pathway activated by cobra venom factor in the presence of appropriate dilutions of the test compound. Inhibition of the shunt pathway results in failure of lysis; (iv) Forssman Vasculitis Test--Here, the well known complement dependent lesion, Forssman vasculitis, is produced in guinea pigs by intradermal injection of rabbit anti-Forssman antiserum. The lesion is measured in terms of diameter, edema and hemorrhage and the extent to which a combined index of these is inhibited by prior intraperitoneal injection of the test compound at 200 mg/kg is then reported, unless otherwise stated; (v) Forssman Shock Test--Lethal shock is produced in guinea pigs by an i.v. injection of anti-Forssman antiserum and the harmonic mean death time of treated guinea pigs is compared with that of simultaneous controls; (vi) Complement Level Reduction Test--In this test, the above dosed guinea pigs, or others, are bled for serum and the complement level is determined in undiluted serum by the capillary tube method of U.S. Pat. No. 3,876,376 and compared to undosed control guinea pigs; and (vii) Cap 50 Test--Here, appropriate amounts of the test compound are added to a pool of guinea pig serum in vitro, after which the undiluted serum capillary tube assay referred to above is run. The concentration of compound inhibiting 50% is reported.
(§2) **Activity in wells, a serial dilution assay. Higher well number indicate
(§3) higher activity. The serial dilutions are twofold.

[1] = test system: late components of human complement (C3-C9); test: Test, Code 035 (C3-C9 inhibitor): lysis of EAC 142 by late components of human complement; type: cell-based; details: activity in wells, twofold serial dilution; higher well number indicates higher activity
From the text: as §1, §2, §3

shunt pathway = test: Test, Code 036 (C-Shunt inhibitor): lysis of human erythrocytes in autologous serum via shunt pathway activated by cobra venom factor; type: cell-based; details: activity in wells, twofold serial dilution; higher well number indicates higher activity
From the text: as §1, §2, §3

whole complement = test: In vivo complement inhibition in guinea pigs (whole complement of serum, capillary tube assay); parameters: species or system guinea pig; details: for change in vivo at 200 mg/kg: Cavia porcellus, ip
From the text: as §1
With reference to Table I, guinea pigs weighing about 300 g were dosed intravenously (i.v.) or intraperitoneally (i.p.) with 200 mg/kg of the test compound dissolved in saline and adjusted to pH 7-8. […] The serum was tested for whole complement using the capillary tube assay. Percent inhibition was calculated by comparison with simultaneous controls. The results appear in Table I together with results of tests, Code 026, 035, 036, Cap 50, percent inhibition and Forssman shock.

[2] = 0.5 h, read-out: In Vivo Activity (Guinea Pig) % Inhibition Intraperitoneal 30 mins.
[3] = 1 h, read-out: In Vivo Activity (Guinea Pig) % Inhibition Intraperitoneal 60 mins.
[4] = 2 h, read-out: In Vivo Activity (Guinea Pig) % Inhibition Intraperitoneal 120 mins.
[5] = 0.5 h, intraperitoneal, 200 mg/kg, 30 mins., read-out: In Vivo Activity (Guinea Pig) % Inhibition Intraperitoneal 30 mins.
[6] = 1 h, intraperitoneal, 200 mg/kg, 60 mins., read-out: In Vivo Activity (Guinea Pig) % Inhibition Intraperitoneal 60 mins.
[7] = 2 h, intraperitoneal, 200 mg/kg, 120 mins., read-out: In Vivo Activity (Guinea Pig) % Inhibition Intraperitoneal 120 mins.

T1 sequence (P09871 16-688): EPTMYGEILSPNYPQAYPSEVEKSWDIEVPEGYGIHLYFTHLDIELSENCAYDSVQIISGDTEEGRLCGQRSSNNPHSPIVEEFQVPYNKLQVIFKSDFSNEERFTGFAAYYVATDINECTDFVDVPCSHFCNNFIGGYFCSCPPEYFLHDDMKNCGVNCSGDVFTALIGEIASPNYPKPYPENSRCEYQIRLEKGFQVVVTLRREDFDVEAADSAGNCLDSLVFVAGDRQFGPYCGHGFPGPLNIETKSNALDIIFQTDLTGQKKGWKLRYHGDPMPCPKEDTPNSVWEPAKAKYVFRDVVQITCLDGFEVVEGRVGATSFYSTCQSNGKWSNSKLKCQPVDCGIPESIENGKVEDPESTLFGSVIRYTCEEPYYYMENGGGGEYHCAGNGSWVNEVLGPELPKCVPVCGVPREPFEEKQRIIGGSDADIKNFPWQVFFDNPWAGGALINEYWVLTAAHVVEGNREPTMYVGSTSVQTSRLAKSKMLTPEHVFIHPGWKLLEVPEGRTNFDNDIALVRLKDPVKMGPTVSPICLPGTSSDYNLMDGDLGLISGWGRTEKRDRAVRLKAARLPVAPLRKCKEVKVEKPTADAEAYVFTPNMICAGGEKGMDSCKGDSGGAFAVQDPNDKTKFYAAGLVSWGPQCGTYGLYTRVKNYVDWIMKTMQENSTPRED
T1 sequence (P00736 18-705 partner): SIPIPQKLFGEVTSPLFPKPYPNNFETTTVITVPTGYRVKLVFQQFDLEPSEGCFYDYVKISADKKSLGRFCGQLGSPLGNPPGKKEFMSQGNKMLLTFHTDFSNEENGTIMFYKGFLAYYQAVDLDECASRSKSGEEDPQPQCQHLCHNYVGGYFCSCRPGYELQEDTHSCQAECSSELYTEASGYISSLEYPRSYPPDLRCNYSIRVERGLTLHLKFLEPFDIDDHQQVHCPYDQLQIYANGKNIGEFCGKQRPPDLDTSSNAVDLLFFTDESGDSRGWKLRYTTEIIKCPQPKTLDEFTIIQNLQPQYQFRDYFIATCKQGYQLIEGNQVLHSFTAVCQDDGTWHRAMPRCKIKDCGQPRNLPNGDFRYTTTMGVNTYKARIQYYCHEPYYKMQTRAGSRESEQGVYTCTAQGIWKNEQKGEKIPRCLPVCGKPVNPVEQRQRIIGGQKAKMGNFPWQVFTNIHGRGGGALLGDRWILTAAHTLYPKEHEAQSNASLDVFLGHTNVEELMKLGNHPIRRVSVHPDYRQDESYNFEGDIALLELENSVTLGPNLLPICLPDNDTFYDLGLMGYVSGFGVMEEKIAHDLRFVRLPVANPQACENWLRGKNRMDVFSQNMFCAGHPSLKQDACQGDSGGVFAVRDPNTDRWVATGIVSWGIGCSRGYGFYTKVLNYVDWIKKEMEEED
T1 sequence (P02745 23-245 partner): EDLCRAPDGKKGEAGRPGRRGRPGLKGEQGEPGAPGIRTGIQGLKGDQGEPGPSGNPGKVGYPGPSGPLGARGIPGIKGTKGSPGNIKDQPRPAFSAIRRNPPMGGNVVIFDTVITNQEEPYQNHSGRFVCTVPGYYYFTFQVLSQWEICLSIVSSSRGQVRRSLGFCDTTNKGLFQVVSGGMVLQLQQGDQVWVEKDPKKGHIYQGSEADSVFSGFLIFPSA
T1 sequence (P02746 28-253 partner): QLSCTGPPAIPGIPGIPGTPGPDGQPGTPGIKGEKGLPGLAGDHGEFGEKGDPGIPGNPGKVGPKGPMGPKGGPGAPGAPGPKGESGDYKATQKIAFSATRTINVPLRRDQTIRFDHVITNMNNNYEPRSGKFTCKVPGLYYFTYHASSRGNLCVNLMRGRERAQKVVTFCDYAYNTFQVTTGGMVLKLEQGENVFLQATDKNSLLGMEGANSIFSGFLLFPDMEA
T1 sequence (P02747 29-245 partner): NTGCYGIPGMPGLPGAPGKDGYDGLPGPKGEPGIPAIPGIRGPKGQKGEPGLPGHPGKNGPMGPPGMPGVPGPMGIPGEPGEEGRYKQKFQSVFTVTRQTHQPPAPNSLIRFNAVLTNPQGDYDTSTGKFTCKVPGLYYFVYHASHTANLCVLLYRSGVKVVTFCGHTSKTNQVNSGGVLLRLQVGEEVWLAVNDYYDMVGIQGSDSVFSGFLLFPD

O=C(Nc1ccc(C(=O)Nc2ccc(S(=O)(=O)[O-])c3ccc(S(=O)(=O)[O-])cc23)c(S(=O)(=O)[O-])c1)Nc1ccc(C(=O)Nc2ccc(S(=O)(=O)[O-])c3ccc(S(=O)(=O)[O-])cc23)c(S(=O)(=O)[O-])c1.[Na+].[Na+].[Na+].[Na+].[Na+].[Na+] [4,4'-{Ureylenebis[(2-sulfo-4,1-phenylenecarbonyl)imino]}-di-1,6-naphthalenedisulfonic acid hexasodium salt]
C1 026* Wells (human C1): +5 Wells
C-Late 035* Wells [1]: N
Shunt Inhibition 036* Wells (shunt pathway): N
change in vivo at 200 mg/kg (whole complement; [2]): -3%
change in vivo at 200 mg/kg (whole complement; [3]): -4%
change in vivo at 200 mg/kg (whole complement; [4]): 6%

O=C(Nc1ccc(C(=O)Nc2cc(S(=O)(=O)[O-])cc3ccc(S(=O)(=O)[O-])cc23)c(S(=O)(=O)[O-])c1)Nc1ccc(C(=O)Nc2cc(S(=O)(=O)[O-])cc3ccc(S(=O)(=O)[O-])cc23)c(S(=O)(=O)[O-])c1.[Na+].[Na+].[Na+].[Na+].[Na+].[Na+] [4,4'-{Ureylenebis[(2-sulfo-4,1-phenylenecarbonyl)imino]}-di-2,6-naphthalenedisulfonic acid hexasodium salt]
C1 026* Wells (human C1): +5 Wells
C-Late 035* Wells [1]: N
Shunt Inhibition 036* Wells (shunt pathway): N
change in vivo at 200 mg/kg (whole complement; [2]): -3%
change in vivo at 200 mg/kg (whole complement; [3]): -4%
change in vivo at 200 mg/kg (whole complement; [4]): -11%

O=C(Nc1cc(C(=O)O)cc(C(=O)Nc2cc(S(=O)(=O)O)cc3cc(S(=O)(=O)O)cc(S(=O)(=O)O)c23)c1)Nc1cc(C(=O)O)cc(C(=O)Nc2cc(S(=O)(=O)O)cc3cc(S(=O)(=O)O)cc(S(=O)(=O)O)c23)c1 [5,5'-Ureylenebis[N-(3,6,8-trisulfo-1-naphthyl)]isophthalamic acid octasodium salt]
C1 026* Wells (human C1): +10 Wells
C-Late 035* Wells [1]: N
Shunt Inhibition 036* Wells (shunt pathway): +2 Wells
change in vivo at 200 mg/kg (whole complement; [5]): -37%
change in vivo at 200 mg/kg (whole complement; [6]): -42%
change in vivo at 200 mg/kg (whole complement; [7]): -48%
In Vivo Activity (Guinea Pig) % Inhibition Intravenous 2 mins. (whole complement; intravenous, 200 mg/kg, 2 mins.): -92%
In Vivo Activity (Guinea Pig) % Inhibition Intravenous 30 mins. (whole complement; intravenous, 200 mg/kg, 30 mins.): -44%
In Vivo Activity (Guinea Pig) % Inhibition Intravenous 120 mins. (whole complement; intravenous, 200 mg/kg, 120 mins.): -39%

COC(=O)c1cc(NC(=O)Nc2cc(C(=O)Nc3ccc(S(=O)(=O)O)c4cc(S(=O)(=O)O)cc(S(=O)(=O)O)c34)cc(C(=O)OC)c2)cc(C(=O)Nc2ccc(S(=O)(=O)O)c3cc(S(=O)(=O)O)cc(S(=O)(=O)O)c23)c1 [5,5'-Ureylenebis[N-(4,6,8-trisulfo-1-naphthyl)isophthalamic acid]dimethyl ester hexasodium salt]
C1 026* Wells (human C1): +4 Wells
C-Late 035* Wells [1]: +1 Wells
Shunt Inhibition 036* Wells (shunt pathway): +1 Wells
change in vivo at 200 mg/kg (whole complement; [5]): -14%
change in vivo at 200 mg/kg (whole complement; [6]): -17%
change in vivo at 200 mg/kg (whole complement; [7]): -25%

O=C(Nc1cc(C(=O)O)cc(C(=O)Nc2ccc(S(=O)(=O)O)c3cc(S(=O)(=O)O)cc(S(=O)(=O)O)c23)c1)Nc1cc(C(=O)O)cc(C(=O)Nc2ccc(S(=O)(=O)O)c3cc(S(=O)(=O)O)cc(S(=O)(=O)O)c23)c1 [5,5'-Ureylenebis[N-(4,6,8-trisulfo-1-naphthyl)isophthalamic acid]octasodiumsalt]
C1 026* Wells (human C1): +5 Wells
C-Late 035* Wells [1]: +1 Wells
Shunt Inhibition 036* Wells (shunt pathway): +2 Wells
change in vivo at 200 mg/kg (whole complement; [5]): -40%
change in vivo at 200 mg/kg (whole complement; [6]): -49%
change in vivo at 200 mg/kg (whole complement; [7]): -71%

CC(=O)Nc1ccc2c(S(=O)(=O)O)cc(S(=O)(=O)O)cc2c1NC(=O)c1ccc(NC(=O)Nc2ccc(C(=O)Nc3c(NC(C)=O)ccc4c(S(=O)(=O)O)cc(S(=O)(=O)O)cc34)c(S(=O)(=O)O)c2)cc1S(=O)(=O)O [5,5'-[Ureylenebis(2-sulfo-1,4-phenylenecarbonylimino)]bis[6-acetamido-1,3-naphthalenedisulfonic acid]hexasodium salt]
C1 026* Wells (human C1): +8 Wells
C-Late 035* Wells [1]: N
Shunt Inhibition 036* Wells (shunt pathway): +1 Wells
change in vivo at 200 mg/kg (whole complement; [5]): -19%
change in vivo at 200 mg/kg (whole complement; [6]): 8%
change in vivo at 200 mg/kg (whole complement; [7]): 4%
